The record followed here is patent US9745283B2, “Uracil derivatives as AXL and c-MET kinase inhibitors” (priority 2011, dated 2017).

A value given as a limit tells only on which side of the number the result lay.

In the first assay the target is recombinant human baculovirus-expressed AXL (Homo sapiens (Human), UniProt P30530). In words: AXL Kinase Assay (HTRF KinEASE). The assay is classed as biochemical. The conditions noted are these: average of two or more determinations. As for the experimental part:
The ability of compounds to inhibit the kinase activity of recombinant human baculovirus-expressed AXL was measured by homogeneous TRF (HTRF) using Cisbio's KinEASE™ assay system in white 384-well Optiplates. Assay buffer contained 1 mM DTT, 2 mM MnCl2, 2% DMSO, […] supplement enzymatic buffer, and 1× enzymatic buffer. A 2× concentration of tyrosine kinase (TK) substrate-biotin/ATP mixture made in assay buffer was added to plates at 10 μL/well using the Multidrop Combi (Thermo Fisher Scientific, Waltham, Mass.). […] Compounds (100 nL), diluted in 100% DMSO on the Biomek FX, (Beckman Coulter, Inc., Brea, Calif.), were transferred to the assay plates using the Biomek FX pintool (2.5% final DMSO in assay). […] Plates were sealed, briefly shaken and incubated at 25° C. for 30 minutes. […] Plates were sealed, briefly shaken and incubated at 25° C. for 1 hour.
(§1) Inhibition curves for compounds were generated by plotting percent control activity versus log 10 of the concentration of compound. IC50 values were calculated by nonlinear regression using the sigmoidal dose-response (variable slope) equation in GraphPad Prism as follows: y=bottom+(top−bottom)/(1+10(log IC50−x)*Hill Slope) where y is the % kinase activity at a given concentration of compound, x is the logarithm of the concentration of compound, bottom is the % of control kinase activity at the highest compound concentration tested, and top is the % of control kinase activity at the lowest compound concentration examined. The values for bottom and top were fixed at 0 and 100, respectively.
A general note: Time-resolved FRET reads energy transfer from a long-lived donor to a nearby acceptor.
With `CCC(C)Cn1c(=O)c(C(=O)Nc2ccc(Oc3ccnc4cc(OC)c(OC)cc34)c(F)c2)nn(C)c1=O` (racemic) [Example 130, ±2-Methyl-4-(2-methyl-butyl)-3,5-dioxo-2,3,4,5-tetrahydro-[1,2,4]triazine-6-carboxylic acid [4-(6,7-dimethoxy-quinolin-4-yloxy)-3-fluoro-phenyl]-amide], the IC50 is under 10 nM.
`CCn1cc(C(=O)Nc2ccc(Oc3ccnc4cc(OC)cc(OC)c34)cc2)c(=O)n(-c2ccc(F)cc2)c1=O` [Example 39, 1-Ethyl-3-(4-fluorophenyl)-2,4-dioxo-1,2,3,4-tetrahydropyrimidine-5-carboxylic acid [4-(5,7-dimethoxyquinolin-4-yloxy)-phenyl]-amide]: the IC50 was under 10 nM.
For the molecule `COc1cc2nccc(Oc3ccc(NC(=O)c4cn(Cc5csc(C)n5)c(=O)n(-c5ccc(F)cc5)c4=O)cc3F)c2cc1OC` [Example 75, 3-(4-Fluoro-phenyl)-1-(2-methyl-thiazol-4-ylmethyl)-2,4-dioxo-1,2,3,4-tetrahydro-pyrimidine-5-carboxylic acid [4-(6,7-dimethoxy-quinolin-4-yloxy)-3-fluoro-phenyl]-amide], the IC50 was under 10 nM.
With `COc1cc2nccc(Oc3ccc(NC(=O)c4cn(C5CCCC5)c(=O)n(-c5ccc(F)cc5)c4=O)cc3F)c2cc1OC` [Example 76, 1-Cyclopentyl-3-(4-fluoro-phenyl)-2,4-dioxo-1,2,3,4-tetrahydro-pyrimidine-5-carboxylic acid [4-(6,7-dimethoxy-quinolin-4-yloxy)-3-fluoro-phenyl]-amide], the IC50 is under 10 nM.
Regarding `CCn1cc(C(=O)Nc2ccc(Oc3ccnc4ccc(OC)c(OC)c34)cc2)c(=O)n(-c2ccc(F)cc2)c1=O` [Example 167, 1-Ethyl-3-(4-fluoro-phenyl)-2,4-dioxo-1,2,3,4-tetrahydro-pyrimidine-5-carboxylic acid [4-(5,6-dimethoxy-quinolin-4-yloxy)-phenyl]-amide], the IC50 is under 10 nM.

The target of the next assay is recombinant human baculovirus-expressed cMET (Homo sapiens (Human), UniProt P08581). The assay is described as follows: C-MET Kinase Assay (HTRF KinEASE). The conditions noted are these: average of two or more determinations; read-out: c-MET IC50. The assay is classed as biochemical. As for the experimental part:
The cMET kinase assay was performed in 384-well Fluotrac™ 200 HiBase microplates using the HTRF KinEASE™ assay described above for AXL except that the assay volume was reduced to half. Enzyme concentration was 8 ng/mL of recombinant human baculovirus-expressed cMET while the substrate concentrations were 0.1 μM and 0.02 μM for the biotinylated peptide and ATP, respectively. Instead of the Multidrop Combi, the BioRAPTR® FRD microfluidic workstation (Beckman Coulter, Brea, Calif.) was utilized for reagent additions.
as §1
Regarding `CCC(C)Cn1c(=O)c(C(=O)Nc2ccc(Oc3ccnc4cc(OC)c(OC)cc34)c(F)c2)nn(C)c1=O` (racemic) [Example 130, ±2-Methyl-4-(2-methyl-butyl)-3,5-dioxo-2,3,4,5-tetrahydro-[1,2,4]triazine-6-carboxylic acid [4-(6,7-dimethoxy-quinolin-4-yloxy)-3-fluoro-phenyl]-amide], the IC50 was in the range of 10 to 100 nM.
As to `COc1cc2ncnc(Oc3ccc(NC(=O)c4cn(C(C)C)c(=O)n(-c5ccc(F)cc5)c4=O)cc3)c2cc1OC` [Example 141, 3-(4-Fluoro-phenyl)-1-isopropyl-2,4-dioxo-1,2,3,4-tetrahydro-pyrimidine-5-carboxylic acid [4-(6,7-dimethoxy-quinazolin-4-yloxy)-phenyl]-amide], the IC50 fell in the range of 10 to 100 nM.
Still for that read-out and setting: then `CCn1cc(C(=O)Nc2ccc(Oc3ncnc4cc(OC)c(OC)cc34)cc2)c(=O)n(-c2ccc(F)cc2)c1=O` [Example 142, 1-Ethyl-3-(4-fluorophenyl)-2,4-dioxo-1,2,3,4-tetrahydro-pyrimidine-5-carboxylic acid [4-(6,7-dimethoxy-quinazolin-4-yloxy)-phenyl]-amide], with 10 to 100 nM.
For the molecule `CCn1cc(C(=O)Nc2ccc(Oc3ccnc4cc(OC)c(OC)cc34)c(C)c2)c(=O)n(-c2ccc(F)cc2)c1=O` [Example 148, 1-Ethyl-3-(4-fluoro-phenyl)-2,4-dioxo-1,2,3,4-tetrahydro-pyrimidine-5-carboxylic acid [4-(6,7-dimethoxy-quinolin-4-yloxy)-3-methyl-phenyl]-amide], the IC50 is 10 to 100 nM.
For `CCn1cc(C(=O)Nc2ccc(Oc3ccnc4cc(OC)c(OC)cc34)c(Cl)c2)c(=O)n(-c2ccc(F)cc2)c1=O` [Example 152], the IC50 was in the range of 10 to 100 nM.
With `COc1cc2nccc(Oc3ccc(NC(=O)c4cn(C(C)C)c(=O)n(-c5ccc(F)cc5)c4=O)c(N(C)C)c3)c2cc1OC` [Example 154, 3-(4-Fluoro-phenyl)-1-isopropyl-2,4-dioxo-1,2,3,4-tetrahydro-pyrimidine-5-carboxylic acid [4-(6,7-dimethoxy-quinolin-4-yloxy)-2-dimethylamino-phenyl]-amide], the IC50 fell in the range of 101 to 1000 nM.
Take `CCn1cc(C(=O)Nc2ccc(Oc3ccnc4cc(OC)c(OC)cc34)c(C(C)C)c2)c(=O)n(-c2ccc(F)cc2)c1=O` [Example 155, 1-Ethyl-3-(4-fluoro-phenyl)-2,4-dioxo-1,2,3,4-tetrahydro-pyrimidine-5-carboxylic acid [4-(6,7-dimethoxy-quinolin-4-yloxy)-3-isopropyl-phenyl]-amide]: the IC50 fell in the range of 10 to 100 nM.
For the molecule `COc1cc2nccc(Oc3ccc(NC(=O)c4cn(C(C)C)c(=O)n(-c5ccc(F)cc5)c4=O)cc3C(C)C)c2cc1OC` [Example 156, 3-(4-Fluoro-phenyl)-1-isopropyl-2,4-dioxo-1,2,3,4-tetrahydro-pyrimidine-5-carboxylic acid [4-(6,7-dimethoxy-quinolin-4-yloxy)-3-isopropyl-phenyl]-amide], the IC50 fell in the range of 10 to 100 nM.
The same measure, in the same setting: then `CCn1cc(C(=O)Nc2ccc(Oc3ccnc4cc(OC)c(OC)cc34)c(C)c2C)c(=O)n(-c2ccc(F)cc2)c1=O` [Example 157, 1-Ethyl-3-(4-fluoro-phenyl)-2,4-dioxo-1,2,3,4-tetrahydro-pyrimidine-5-carboxylic acid [4-(6,7-dimethoxy-quinolin-4-yloxy)-2,3-dimethyl-phenyl]-amide], with 101 to 1000 nM.
As for `COc1cc2nccc(Oc3ccc(NC(=O)c4cn(C(C)C)c(=O)n(-c5ccc(F)cc5)c4=O)c(C)c3C)c2cc1OC` [Example 158, 3-(4-Fluoro-phenyl)-1-isopropyl-2,4-dioxo-1,2,3,4-tetrahydro-pyrimidine-5-carboxylic acid [4-(6,7-dimethoxy-quinolin-4-yloxy)-2,3-dimethyl-phenyl]-amide], the IC50 is 101 to 1000 nM.
For `COc1cc2nccc(Oc3ccc(NC(=O)c4cn(C(C)C)c(=O)n(-c5ccc(F)cc5)c4=O)cc3C(F)(F)F)c2cc1OC` [Example 160, 3-(4-Fluoro-phenyl)-1-isopropyl-2,4-dioxo-1,2,3,4-tetrahydro-pyrimidine-5-carboxylic acid [4-(6,7-dimethoxy-quinolin-4-yloxy)-3-trifluoromethyl-phenyl]-amide], the IC50 lay within 101 to 1000 nM.
With `CCn1cc(C(=O)Nc2cc(C)c(Oc3ccnc4cc(OC)c(OC)cc34)c(C)c2)c(=O)n(-c2ccc(F)cc2)c1=O` [Example 161, 1-Ethyl-3-(4-fluoro-phenyl)-2,4-dioxo-1,2,3,4-tetrahydro-pyrimidine-5-carboxylic acid [4-(6,7-dimethoxy-quinolin-4-yloxy)-3,5-dimethyl-phenyl]-amide], the IC50 lay within 10 to 100 nM.
On to `COc1cc2nccc(Oc3c(C)cc(NC(=O)c4cn(C(C)C)c(=O)n(-c5ccc(F)cc5)c4=O)cc3C)c2cc1OC` [Example 162, 3-(4-Fluoro-phenyl)-1-isopropyl-2,4-dioxo-1,2,3,4-tetrahydro-pyrimidine-5-carboxylic acid [4-(6,7-dimethoxy-quinolin-4-yloxy)-3,5-dimethyl-phenyl]-amide], for which the IC50 lay in the range of 10 to 100 nM.
Same read-out and setting: then `COc1cc2nccc(Oc3ccc(NC(=O)c4cn(C(C)C)c(=O)n(-c5ccc(F)cc5)c4=O)cc3C)c2cc1OC` [Example 163, 3-(4-Fluoro-phenyl)-1-isopropyl-2,4-dioxo-1,2,3,4-tetrahydro-pyrimidine-5-carboxylic acid [4-(6,7-dimethoxy-quinolin-4-yloxy)-3-methyl-phenyl]-amide], with 10 to 100 nM; and `CCn1nc(C(=O)Nc2ccc(Oc3ccnc4cc(OC)c(OC)cc34)cn2)c(=O)n(-c2ccc(F)cc2)c1=O` [Example 164, 2-Ethyl-4-(4-fluoro-phenyl)-3,5-dioxo-2,3,4,5-tetrahydro-1,2,4-triazine-6-carboxylic acid [5-(6,7-dimethoxy-quinolin-4-yloxy)-pyridin-2-yl]-amide], with 10 to 100 nM; and `COc1cc(Oc2ccnc3cc(OC)c(OC)cc23)ccc1NC(=O)c1nn(C(C)C)c(=O)n(-c2ccc(F)cc2)c1=O` [Example 166, 4-(4-Fluoro-phenyl)-2-isopropyl-3,5-dioxo-2,3,4,5-tetrahydro-1,2,4-triazine-6-carboxylic acid [4-(6,7-dimethoxy-quinolin-4-yloxy)-2-methoxy-phenyl]-amide], with 101 to 1000 nM.
For `CCn1nc(C(=O)Nc2ccc(Oc3ccnc4cc(OC)c(OC)cc34)c(C(F)(F)F)c2)c(=O)n(-c2ccc(F)cc2)c1=O` [Example 169, 2-Ethyl-4-(4-fluoro-phenyl)-3,5-dioxo-2,3,4,5-tetrahydro-1,2,4-triazine-6-carboxylic acid [4-(6,7-dimethoxy-quinolin-4-yloxy)-3-trifluoromethyl-phenyl]-amide], the IC50 is under 10 nM.
Still for that read-out and setting: then `CCn1nc(C(=O)Nc2ccc(Oc3ccnc4cc(OC)c(OC)cc34)cc2OC)c(=O)n(-c2ccc(F)cc2)c1=O` [Example 170, 2-Ethyl-4-(4-fluoro-phenyl)-3,5-dioxo-2,3,4,5-tetrahydro-1,2,4-triazine-6-carboxylic acid [4-(6,7-dimethoxy-quinolin-4-yloxy)-2-methoxy-phenyl]-amide], with 10 to 100 nM.

By IC50 is commonly meant the concentration needed to halve the response being measured.
